Experimental data from patent US6909014B2, “Intermediates for the synthesis of ether compounds” (Esperion Therapeutics, Inc., priority 1999, dated 2005).

Columns and labels:
[1] = test system: hepatocytes isolated from a male Sprague-Dawley rat; assay: Synthesis of non-saponified and saponified lipids (14C-acetate incorporation) in hepatocytes; assay type: cell-based; settings: 100 μM, 14C-acetate labeling 2 hr (FIG. 18)
Experimental: A male Sprague-Dawley rat was anesthetized by administration of sodium pentobarbitol by intraparitoneal injection at 50 mg/kg. In situ perfusion of the liver was performed as follows. […] To digest the liver, DSC solution (6.7 mM KCl, 143 mM NaCl, 9.2 mM Na HEPES, 5 mM CaCl2-2H2O, 1.7 mM Fructose, 0.029 mM Phenol red, 0.2% BSA, 100 U/ml collagenase Type I, 93 U/ml Hyaluronidase, 160 BAEE/ml trypsin inhibitor, pH 7.5) was perfused through the liver at a flow rate of 30 ml/min for 6 minutes at a temperature of 37° C. After digestion, cells were dispersed in a solution of DMEM-(DMEM containing 2 mM GlutMax-1, 0.2% BSA, 5% FBS, 12 nM insulin, 1.2 μM hydrocortisone) to stop the digestion process. The crude cell suspension was filtered through three layers of stainless steel mesh with pore sizes of 250, 106, and 75 μm respectively. Filtered cells were centrifuged at 50×g for two minutes and the supernatant discarded. The resulting cell pellet was resuspended in DMEM and centrifuged again. This final cell pellet was resuspended in DMEM+HS solution (DMEM containing 2 mM GlutMax-1, 20 nM delta-aminolevulinic acid, 17.4 mM MEM non-essential amino acids, 20% FBS, 12 nM insulin, 1.2 μM hydrocortisone) and plated to form monolayer cultures at a density of 100×10^3 cells/cm^2 on collagen coated culture dishes. […]

[2] = test system: chow fed obese female Zucker rats; assay: Experiments B, C, D, E: serum lipids, glucose, insulin, body and liver weight in obese female Zucker rats, 14 days; assay type: in vivo, rat
Experimental: In a number of different experiments, illustrative compounds of the invention and troglitazone were administered daily at various doses to 10-week old chow fed obese female Zucker rats for 14 days in the morning by oral gavage in 1.5% carboxymethylcellulose/0.2% Tween-20 (dosing vehicle). Animals were weighed daily. Animals were allowed free access to rodent chow and water throughout the study. Blood glucose was determined after a 6-hour fast in the afternoon without anesthesia from a tail vein. Serum was also prepared from a blood sample subsequently obtained from the orbital venous plexus (with O2/CO2 anesthesia) prior to and after one week treatment and used lipid and insulin determinations. At two weeks, blood glucose was again determined after a 6-hour fast without anesthesia from a tail vein. Soon thereafter, animals were sacrificed by CO2 inhalation in the evening and cardiac blood serum was collected and assessed for various lipids and insulin. Body weight was determined daily prior to dosing and at the time of euthanasia.

[3] = test system: chow fed male Sprague-Dawley rats; assay: Serum lipids, lipoproteins, apolipoproteins and weight gain in chow fed male Sprague-Dawley rats after seven daily oral doses; assay type: in vivo, rat; settings: 100 mg/kg, seven days, vs vehicle
Experimental: Illustrative compounds of the invention were administered daily at a dose of 100 mg/kg to chow fed male Sprague-Dawley rats for seven days in the morning by oral gavage in 1.5% carboxymethylcellulose/0.2% Tween-20 (dosing vehicle). Animals were weighed daily. Animals were allowed free access to rodent chow and water throughout the study. After the seventh dose, animals were sacrificed in the evening and blood serum was assayed for lipoprotein cholesterol profiles, serum triglycerides, total cholesterol VLDL, LDL, and HDL cholesterol, and the ratio of HDL cholesterol to that of VLDL plus LDL cholesterol, apolipoproteins A-I, C-II, C-III, and E by immunoelectrophoresis, and percent weight gain.
The five compounds were tested in two separate experiments. In each experiment, the experimental data were normalized against a control group of rats which received the dosing vehicle alone.

female obese Zucker rats = assay: Experiment A: serum lipids, glucose, non-esterified fatty acids and weight gain in obese female Zucker rats, seven days; assay type: in vivo, rat; settings: Compound A 86 mg/kg, one week
Experimental: Dosing vehicle, Compound A (86 mg/kg of body weight) or troglitazone (120 mg/kg of body weight) was administered to eight week old female obese Zucker rats daily for seven days in the morning by oral gavage in 1.5% carboxymethylcellulose/0.2% Tween-20. Troglitazone was obtained commercially. Finely crushed tablets were suspended in vehicle for dosing. Orbital blood samples were obtained following a six-hour fast prior to the initial dose and also following the seventh dose.
Blood serum was assayed for total cholesterol and triglycerides (FIG. 5), lipoprotein cholesterol profiles (FIG. 6), VLDL plus LDL cholesterol combined (also referred to as apo B containing lipoprotein cholesterol or non-HDL cholesterol), HDL cholesterol, and the ratio of HDL cholesterol to that of VLDL plus LDL cholesterol (FIG. 7), serum glucose, and non-esterified fatty acids (FIG. 8), and percent weight gain (FIG. 9). […] In particular, Compound A caused a marked elevation in HDL cholesterol after one week of treatment. Using the serum total cholesterol values (FIG. 5A) and the lipoprotein cholesterol distribution (FIG. 6), the amount of cholesterol associated with non-HDL (i.e., VLDL plus LDL) and HDL were determined (FIG. 7). […] In contrast, troglitazone reduced non-HDL and HDL cholesterol by 67% and 4%, respectively.

[4] = test system: LDL receptor deficient mice; assay: Lipoprotein cholesterol profile in LDL receptor-deficient mice; assay type: in vivo; settings: 300 mg/kg/day, one week; 4 chow-fed female mice (FIG. 17)
Description: The effect of Compound A on LDL levels in a murine model of homozygous familial hypercholesterolemia (Ishibashi et al., 1993, J. Clin. Invest. 92:883-893; Ishibashi et al., 1994, J. Clin. Invest. 93:1885-1893) was studied. LDL receptor-deficient mice have elevated LDL cholesterol relative to wild type mice when fed a chow diet. When fed cholesterol-enriched diets, these mice develop atherosclerosis.

`CC(C)(O)CCCCOCCCCC(C)(C)O` [Compound F, 6-(5-hydroxy-5-methyl-hexyloxy)-2-methyl-hexan-2-ol] was tested, and the “rate of saponified fatty acid synthesis (in words)” value [1] was “reduced the rates of saponified fatty acid synthesis”.

`CC(C)(CCCCOCCCCC(C)(C)OP(=O)(O)O)OP(=O)([O-])[O-].[Na+].[Na+]` [Compound B, phosphoric acid mono-(1,1-dimethyl-5-(5-methyl-5-phosphonooxy-hexyloxy)-pentyl) ester sodium salt] was tested, and the “Body Weight Gain (% of Pre-treatment)” value ([2]; Experiment B, 100 mg/kg/day, 14 days, control +10.7) was “+12.0 % of Pre-treatment” and the “Triglycerides (% of Pre-treatment)” value ([2]; Experiment B, 100 mg/kg/day, 14 days, control −31.9) was “+24.6 % of Pre-treatment”.

`CC(C)(CO)CCCCOCCCCC(C)(C)CO` [Compound A, 6-(6-hydroxy-5,5-dimethylhexyloxy)-2,2-dimethyl-hexan-1-ol] was tested, and the “change in VLDL cholesterol” value [3] was “no change”, the “serum glucose (in words)” value (female obese Zucker rats) was “did not induce a hypoglycemic state” and the “Body Weight Gain (% of Pre-treatment)” value ([2]; Experiment C, 1 mg/kg/day, 14 days, control +16.7) was “+16.7 % of Pre-treatment”. For the same molecule, the “Triglycerides (% of Pre-treatment)” value ([2]; Experiment C, 1 mg/kg/day, 14 days, control −11.2) was −8.8 % of Pre-treatment, the “Body Weight Gain (% of Pre-treatment)” value ([2]; Experiment C, 3 mg/kg/day, 14 days, control +16.7) was “+17.5 % of Pre-treatment” and the “Triglycerides (% of Pre-treatment)” value ([2]; Experiment C, 3 mg/kg/day, 14 days, control −11.2) was −24.6 % of Pre-treatment. The “HDL-Cholesterol (% of Pretreatment)” value ([2]; Experiment C, 3 mg/kg/day, 14 days, control −29.8) was −3.7 % of Pretreatment, the “Body Weight Gain (% of Pre-treatment)” value ([2]; Experiment C, 10 mg/kg/day, 14 days, control +16.7) was “+10.7 % of Pre-treatment” and the “Triglycerides (% of Pre-treatment)” value ([2]; Experiment C, 10 mg/kg/day, 14 days, control −11.2) was −50.9 % of Pre-treatment. The “Body Weight Gain (% of Pre-treatment)” value ([2]; Experiment C, 30 mg/kg/day, 14 days, control +16.7) was “+11.3 % of Pre-treatment”, the “Triglycerides (% of Pre-treatment)” value ([2]; Experiment C, 30 mg/kg/day, 14 days, control −11.2) was −42.0 % of Pre-treatment and the “Triglycerides (% of Pre-treatment)” value ([2]; Experiment C, 100 mg/kg/day, 14 days, control −11.2) was −57.0 % of Pre-treatment. The “glucose to insulin ratio (in words)” value ([2]; Experiment C, Compound A 100 mg/kg (FIG. 14)) was “reduced”, the “blood glucose (in words)” value ([2]; Experiment C, Compound A 100 mg/kg, troglitazone 40 mg/kg, fasted rats (FIG. 12)) was “tendency to lower blood glucose” and the “reduction of serum triglycerides (in words)” value ([2]; Experiment C, Compound A 1-100 mg/kg, troglitazone 12, 40, 120 mg/kg (FIG. 10)) was “reduced serum triglyceride levels at all doses”. For the same molecule, the “glucose to insulin ratio (in words)” value ([2]; Experiment C, Compound A 1 and 3 mg/kg, two weeks (FIG. 14)) was “declined by approximately ⅓ to ½”, the “weekly percent weight gain (in words)” value ([2]; Experiment C, Compound A 10, 30 and 100 mg/kg, after one and two weeks (FIG. 15)) was “markedly reduced” and the “glucose to insulin ratio (in words)” value ([2]; Experiment C, Compound A 10 and 30 mg/kg (FIG. 14)) was “sustained at pretreatment levels”. The “serum insulin (in words)” value ([2]; Experiment C, higher Compound A doses (FIG. 13)) was “sharp rise in serum insulin was largely curtailed or minimized”, the “Triglycerides (% of Pre-treatment)” value ([2]; Experiment D, 10 mg/kg/day, 14 days, control +1.6) was −11.1 % of Pre-treatment and the “Body Weight Gain (% of Pre-treatment)” value ([2]; Experiment D, 10 mg/kg/day, 14 days, control +10.6) was “+2.2 % of Pre-treatment”. For the same molecule, the “Triglycerides (% of Pre-treatment)” value ([2]; Experiment D, 100 mg/kg/day, 14 days, control +1.6) was −62.9 % of Pre-treatment, the “Body Weight Gain (% of Pre-treatment)” value ([2]; Experiment D, 100 mg/kg/day, 14 days, control +10.6) was “+4.5 % of Pre-treatment” and the “Non HDL-Cholesterol (% of Pretreatment)” value ([2]; Experiment D, 100 mg/kg/day, 14 days, control +15.2) was “+7.5 % of Pretreatment”. For the same molecule, the “Triglycerides (% of Pre-treatment)” value ([2]; Experiment E, 100 mg/kg/day, 14 days, control +12.0) was −43.2 % of Pre-treatment, the “Body Weight Gain (% of Pre-treatment)” value ([2]; Experiment E, 100 mg/kg/day, 14 days, control +21.9) was “+19.1 % of Pre-treatment” and the “Non HDL-Cholesterol (% of Pretreatment)” value ([2]; Experiment E, 100 mg/kg/day, 14 days, control −13.1) was “+7.2 % of Pretreatment”. The “HDL (in words)” value [4] was “HDL elevation in all treated mice” and the “LDL cholesterol (in words)” value [4] was “rapid and significant reduction in LDL cholesterol”.

With `CC(C)(CCCOCCCC(C)(C)OP(=O)(OCc1ccccc1)OCc1ccccc1)OP(=O)(OCc1ccccc1)OCc1ccccc1` [Compound E, phosphoric acid dibenzyl ester 4-(4-(bis-benzyloxy-phosphoryloxy)-4-methyl-pentyloxy)-1,1-dimethyl-butyl ester] the “rate of saponified fatty acid synthesis (in words)” value [1] was “reduced the rates of saponified fatty acid synthesis”.
